Assay results published in PMC3131558, “Plitidepsin Has a Safe Cardiac Profile: A Comprehensive Analysis” (Marine Drugs, 2011).

Key:
[1] = Population PK exposure (Cmax, AUC0-28day) by CAE category; format: in vivo, human; settings: whole blood, simulated, mean (SD)
[2] = tested on: adult patients with advanced solid tumors or hematological malignancies; assay: Paired ECGs (QTc, heart rate) before and after plitidepsin infusion; format: in vivo, human; settings: for QTc Pre-infusion / HR Post-Infusion / QTc Post-infusion / HR Pre-Infusion: mean (SD)
Protocol: Selected ECG variables (Bazett’s corrected QT interval (QTc) and heart rate (HR)) were analyzed in patients with paired ECG data (i.e., available before and after plitidepsin infusion, n = 136).
(§1) Pharmacokinetic (PK) data available from individual clinical trials (four phase I studies and nine phase II studies; see details in Table 1) and/or simulated data using population PK analyses were correlated with the occurrence of CAEs. In the individual studies, doses ranged from 0.13 to 8.00 mg/m^2, and were administered as 1 h or 24 h infusion weekly, 3 h or 24 h infusion bi-weekly, or 1 h infusion for 5 consecutive days every 3 weeks. To evaluate the potential relationship between blood plitidepsin concentrations and QTc and HR values, a total of 90 patients who had ECGs performed during treatment with plitidepsin and PK data during first infusion were analyzed. The plitidepsin concentration at the time when the ECG had been obtained was calculated using the whole blood plitidepsin concentration at the ECG times in which they were simulated taking the individual Bayesian PK parameters of the final population PK model and considering the real treatment history of each patient. In total, 411 patients and 5585 plitidepsin concentration measurements (including 2900 blood and 2685 plasma concentrations) were pooled in the population PK analysis. An open, 3-compartment disposition model with linear elimination and linear distribution from the central compartment to peripheral compartments was used to describe the PK of plitidepsin in plasma. Between and within subject variabilities were assumed to be log-normally distributed. PK exposure parameters (maximum concentration in plasma (Cmax) and area under the curve (AUC) from day 0 to day 28) and other dose-independent PK parameters (clearance, half-life, etc.) were used to evaluate the relationship between patient PK characteristics and the appearance of CAEs. For the statistical analysis of the relationship between the exposure parameters and the development or not of a CAE, a logistic regression model was used to analyze the incidence of the event.

[3] = tested on: human malignant cell lines; settings: in vitro and in vivo, at nanomolar concentration ranges; cited from earlier work
Excerpt: Aplidin® (plitidepsin) is a cyclic depsipeptide originally isolated from the Mediterranean tunicate Aplidium albicans and currently produced by chemical synthesis. Plitidepsin has been proven to be active against several human malignant cell lines both in vitro and in vivo at nanomolar concentration ranges.

[4] = tested on: adult patients with advanced solid tumors or hematological malignancies; assay: Multivariate logistic regression of variables associated with CAEs; format: in vivo, human; settings: overall multivariate analysis
Excerpt: To avoid potential bias, candidate variables were explored by univariate analysis regardless of the relationship attributed to the CAE with plitidepsin by the investigators (related, unrelated or unknown). Univariate logistic regression was used to study the relationship between the occurrence of a CAE and categorical and continuous patient and disease characteristics, and other observed toxicities or laboratory abnormalities. Those variables found to be clinically relevant and/or statistically significant (or of borderline significance) in this analysis were further assessed as covariates in a multivariate analysis using logistic regression with stepwise variable selection and multiple correspondence analysis methods.

[5] = Population PK exposure (Cmax, AUC0-28day) by CAE category; format: in vivo, human; settings: whole blood, mean (SD)
Protocol: as §1

[6] = Other rhythm abnormalities (n = 10)
[7] = All (n = 136 pairs), ECG within 4 h after end of infusion
[8] = Myocardial injury (n = 4 pairs)
[9] = No cardiac event (n = 116 pairs)
[10] = Rhythm abnormalities (n = 18 pairs)

With plitidepsin the “AUC0–28day” value ([1]; Cardiac Adverse Event (n = 36)) was 3236 (2955) h·ng/mL, the Cmax ([1]; Cardiac Adverse Event (n = 36)) was 61.0 (27.9) ng/mL and the Cmax ([1]; Irregular supraventricular tachycardia (n = 12)) was 63.7 (34.6) ng/mL. The “AUC0–28day” value ([1]; Myocardial Injury (n = 11)) was 4077 (3653) h·ng/mL, the Cmax ([1]; Myocardial Injury (n = 11)) was 69.5 (28.2) ng/mL and the Cmax ([1]; Other myocardial injury (n = 4)) was 64.7 (30.6) ng/mL. For the same substance, the “AUC0–28day” value [1, 6] was 2064 (1449) h·ng/mL, the Cmax [1, 6] was 56.8 (26.2) ng/mL and the Cmax ([1]; Possible ischemic related (n = 7)) was 72.2 (28.8) ng/mL. For the same substance, the Cmax ([1]; Regular supraventricular tachycardia (n = 6)) was 57.2 (23.1) ng/mL, the Cmax ([1]; Rhythm Abnormalities (n = 25)) was 61.5 (29.8) ng/mL and the “QTc Pre-infusion” value ([2]; All (n = 136 pairs), Bazett's corrected) was 426.77 (38.78) msec. The “HR Post-Infusion” value [2, 7] was 82.46 (13.17) bpm, the “QTc Post-infusion” value [2, 7] was 429.28 (40.25) msec and the “HR Pre-Infusion” value ([2]; All (n = 136 pairs)) was 79.07 (15.33) bpm. The “HR Post-Infusion” value ([2]; Cardiac event (n = 20 pairs)) was 80.10 (10.87) bpm, the “HR Pre-Infusion” value ([2]; Cardiac event (n = 20 pairs)) was 74.05 (13.39) bpm and the “QTc Post-infusion” value ([2]; Cardiac event (n = 20 pairs)) was 442.60 (32.09) msec. The “QTc Pre-infusion” value ([2]; Cardiac event (n = 20 pairs)) was 437.75 (28.65) msec, the “HR Post-Infusion” value [2, 8] was 77.75 (12.55) bpm and the “HR Pre-Infusion” value [2, 8] was 68.75 (10.34) bpm. The “QTc Post-infusion” value [2, 8] was 437.50 (15.20) msec, the “QTc Pre-infusion” value [2, 8] was 429.00 (29.15) msec and the “HR Post-Infusion” value [2, 9] was 82.86 (13.53) bpm. For the same substance, the “HR Pre-Infusion” value [2, 9] was 79.92 (15.53) bpm, the “QTc Post-infusion” value [2, 9] was 426.98 (41.18) msec and the “QTc Pre-infusion” value [2, 9] was 424.88 (40.06) msec. For the same substance, the “HR Post-Infusion” value [2, 10] was 80.44 (11.30) bpm, the “HR Pre-Infusion” value [2, 10] was 75.44 (13.39) bpm and the “QTc Post-infusion” value [2, 10] was 442.67 (33.79) msec. For the same substance, the “QTc Pre-infusion” value [2, 10] was 439.44 (29.79) msec, the “Relationship between whole blood plitidepsin concentrations and QTc interval” value ([2]; all ECGs during treatment (263 ECGs), simulated concentrations) was “No apparent relationship” and the “Activity against several human malignant cell lines” value [3] was “active”. The “OR for CAE: Tumor type, Prostate or pancreatic cancer” value ([4]; p = 0.0017) was 4.217, the “OR for CAE: Cardiac risk and relevant concomitant medication at baseline, Presence” value ([4]; p = 0.0072) was 3.034 and the “OR for CAE: Hypokalemia (worst per patient), Grade ≥ 2” value ([4]; p = 0.0095) was 3.851. For the same substance, the “OR for CAE: Myalgia (at baseline), Presence” value ([4]; p = 0.0140) was 5.015, the “OR for CAE: Hemoglobin (worst per patient), <10 g/dL” value ([4]; p = 0.0208) was 2.195 and the “AUC0–28day” value ([5]; Irregular supraventricular tachycardia (n = 12), simulated) was 3197 (3640) h·ng/mL. For the same substance, the “AUC0–28day” value ([5]; Miscellaneous Cardiac Adverse Event (n = 7), simulated) was 2645 (1672) h·ng/mL, the “AUC0–28day” value ([5]; No Cardiac adverse Event (n = 375), simulated from population PK model) was 3374 (4336) h·ng/mL and the “AUC0–28day” value ([5]; Other myocardial injury (n = 4), simulated) was 4791 (6136) h·ng/mL. For the same substance, the “AUC0–28day” value ([5]; Possible ischemic related (n = 7), simulated) was 3668 (1696) h·ng/mL, the “AUC0–28day” value ([5]; Regular supraventricular tachycardia (n = 6), simulated) was 5277 (3997) h·ng/mL and the “AUC0–28day” value ([5]; Rhythm Abnormalities (n = 25), simulated) was 3435 (3372) h·ng/mL.
